Source: patent US20020132823A1, “Assay method” (priority 2001, published 2002)

Legend:
[1] = tested on: IL-1β release from human peripheral blood mononuclear cells; test: IL-1β release from human PBMCs (LPS/γ-interferon stimulated, ELISA); type: cell-based; conditions: PBMC, LPS 5 μg/ml + γ-interferon 100 U/ml, 4.5 hours
Description: (§1) 2. TNFα and IL-1 Release from Human PBMCs
(§2) Cell Separation and Culture
(§3) All cell culture and ELISA work was done on 96 well plates (Costar). Mononuclear cells were prepared from the blood of healthy volunteers using ficoll-hypaque density separation according to the method of Hansel et al (Hansel TT et al. (1991) An improved immunomagnetic procedure for the isolation of highly purified human blood eosinophils. J. Imm. Methods 145, 105-110) and used at a concentration of 100,000 cells/well in RPMI 1640, 5% FCS (Gibco). Serial dilution of the test compound were made in DMSO and diluted with culture medium. Final DMSO concentration in the culture medium was 0.1%. Compound were preincubated with the cells for 30 minutes at 37° C., 5% CO2. Then, the cells were stimulated with LPS (5 μg/ml, Sigma) and γ-interferon (100 U/ml, Boehringer Mannheim) and cultured for 3 hours (for TNFα-determination) or 4.5 hours (for Il-1 β and Il-6 determination). […]
ELISA microtiter plates were coated with a murine anti-human IL-1^2 MAb (Human IL-1^2 Cytoset (Biosource International Inc., #CHC1214), 100 μl at 1 μg/ml) in PBS 0.02% NaN3 and incubated overnight at +4° C., The following day, microtiter plates were washed 4 times with PBS/0.05% Tween/0.02% NaN3 and blocked with 300 μl of PBS/2% bovine serum albumin (BSA)/0.02% NaN3 for 3 h. […] Plates were read in a microtiter reader (Bio-Rad) using filters of 405 and 490 nm.

[2] = tested on: IL-6 production in human dermal fibroblasts; test: IL-6 production in human dermal fibroblasts (IL-1β stimulated, ELISA); type: cell-based; conditions: Fibroblast, 1 μM compound, IL-1β 100 pg/ml, 16-17 h
Description: 4. IL-6 Production in Human Dermal Fibroblasts
Human dermal foreskin fibroblasts were obtained from Clonetics (CC-2509) and grown in FBM (Clonetics, CC-3131 ) including bFGF (1 ng/ml, CC-4065), insulin (5 μg/ml, CC-4021), and 2% FCS (CC-4101).
For induction of IL-6, cells were seeded at a density of 10^4 cells per well in a 48 well tissue cluster. The following day, cells were starved for 6-7 h in FBM containing 2% FCS. Compounds were added at final concentrations of 10 and 1 μM 30 min prior to stimulation with recombinant human IL-1β (100 pg/ml).
Cell supernatant was taken 16-17 h after stimulation and the amount of released IL-6 determined in a sandwich ELISA.
ELISA microtiter plates were coated with a murine anti-human IL-6 MAb (314-14 (Novartis Pharma; batch EN23,961, 5.5 mg/ml); 100 μl at 3 μg/ml) in PBS 0.02% NaN3 and incubated overnight at +4° C., The following day, microtiter plates were washed 4 times with PBS/0.05% Tween/0.02% NaN3 and blocked with 300 μl of PBS/3% bovine serum albumin (BSA)/0.02% NaN3 for 3 h. […] Plates were read in a microtiter reader (Bio-Rad) using filters of 405 and 490 nm. IL-6 levels in culture supernatants were calculated in reference to the standard curve using the cubic curve fit. Percentage inhibitions and IC50 values were calculated

Recombinant human Prak = biological target: T1, Recombinant human Prak (Homo sapiens, UniProt Q8IW41); test: In vitro kinase assay Prak (HSP27 phosphorylation, 33P-ATP); type: biochemical; conditions: activated recombinant human Prak, His-HSP27 substrate, 1 h at room temperature
T1 construct: His6; made in house; host or cells: E. coli
T1 sequence (Q8IW41 1-471 isoform Q8IW41-2): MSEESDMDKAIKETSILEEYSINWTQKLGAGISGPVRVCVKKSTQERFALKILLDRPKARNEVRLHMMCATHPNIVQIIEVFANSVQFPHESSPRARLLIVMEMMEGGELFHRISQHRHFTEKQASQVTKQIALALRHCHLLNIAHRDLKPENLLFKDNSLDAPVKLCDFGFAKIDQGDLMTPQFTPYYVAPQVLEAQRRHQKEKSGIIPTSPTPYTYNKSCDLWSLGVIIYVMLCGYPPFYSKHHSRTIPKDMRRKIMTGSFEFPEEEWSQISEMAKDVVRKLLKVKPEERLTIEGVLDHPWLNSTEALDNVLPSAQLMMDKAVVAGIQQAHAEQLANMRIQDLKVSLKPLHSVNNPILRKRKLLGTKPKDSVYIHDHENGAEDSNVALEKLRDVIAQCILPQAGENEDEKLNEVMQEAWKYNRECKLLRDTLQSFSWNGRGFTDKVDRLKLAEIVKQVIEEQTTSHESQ
Description: Recombinant human Prak was expressed in E. coli as His6-tagged protein substantially as described for Mnk1 by Tschopp et al. (Tschopp et al. (2000) Phoshorylation of eIF-4E on Ser 209 in response to mitogenic and inflammatory stimuli is faithfully detected by specific antibodies. Molecular Cell Biology Res. Comm. 3, 205-211). Phospho-p38a and His6-Hsp27 was prepared substantially as described (New et al. and Tschopp et al. ibid). All kinase reactions were performed with the following reaction buffer. Kinase buffer (5×): 125 mM Hepes (Stock at 1M; Gibco #15630-056), 125 mM β-glycerophosphate (Sigma #G-6251):125 mM MgCl2 (Merck #5833); 0.5 mM Sodium orthovanadate (Sigma #5-6508), 10 mM DTT (Boehringer Mannheim #708992), pH 7.4. The (5×) kinase buffer is freshly prepared from 25× stock solution. DTT is stored frozen at −20° C. in small aliquots and added immediately before use.
Prior to the assay, recombinant Prak is phosphorylated by incubation with phospho-p38. […]
The assay is stopped after one hour of incubation at room temperature by the addition of 5 μl EDTA 0.5M. […] After washing and drying the membrane, incorporated label is quantified by liquid scintillation counting.

[3] = Cytotoxicity in THP-1 cells (MTT); type: cell-based; conditions: human, THP-1 cells stimulated with LPS/IFNγ, LPS/IFN stimulated
Description: THP-1 cells are obtained from ATCC and stored in liquid nitrogen. Medium for growth of THP-1 cells: RPMI 1640(GIBCO)+10% fetal bovine serum (GIBCO)+L-glutamine (2 mM)+penicillin/streptomycin (100 U/ml) +β-mercaptoethanol (0.05 mM). Cell culture medium for THP-1 incubation: RPMI 1640(GIBCO)+5% fetal bovine serum (GIBCO)+L-glutamine (2 mM)+penicillin/streptomycin (100 U/ml)+β-mercaptoethanol (0.05 mM).
The solution for stimulation is prepared by mixing equal volumes of IFNγ (Boehringer Mannheim, 2000 U/ml) and LPS (Sigma, L8274, 100 μg/ml). The dye solution is prepared from 500 mg MTT (Sigma, M2128) in 100 ml phosphate buffered saline (PBS) and kept under sterile conditions at 4° C. Sodium dodecyl sulfate (SDS) solution (10%) is made from 50 g SDS (Bioprobe Systems) and 5 ml 1N HCl. The solution is made up to 500 ml with distilled water and kept at room temperature (precipitates in the fridge). All incubations are done at 37° C. in 5% CO2. […]
The absorbance at 540 nm is read with a microplate reader (Biotec 808 Elx). […]
Calculation of cytotoxicity: The absorbance corresponding to 100% cytotoxicity equals the absorbance of wells without cells (no MTT converted into the blue dye). The absorbance corresponding to no cytotoxicity is taken from wells without substance, but with control solvent. Percent cytotoxicity is calculated for each substance concentration.

[4] = tested on: TNFα release from human peripheral blood mononuclear cells; test: TNFα release from human PBMCs (LPS/γ-interferon stimulated, ELISA); type: cell-based; conditions: PBMC, LPS 5 μg/ml + γ-interferon 100 U/ml, 3 hours
Description: as §1, §2
as §3, with “0.1%.” for “0.1%. Compound were preincubated with the cells for 30 minutes at 37° C., 5% CO2. Then, the cells were stimulated with LPS (5 μg/ml, Sigma) and γ-interferon (100 U/ml, Boehringer Mannheim) and cultured for 3 hours (for TNFα-determination) or 4.5 hours (for Il-1 β and Il-6 determination).”
For ELISA determination, supernatants were diluted 1:1 and added into a plate coated with the anti humanTNF monoclonal antibody (357-101-4, clone 92030603 from European Collection of Animal Cell Cultures, antibody produced and purified within Novartis Pharma, 1 μg/ml in PBS) After overnight incubation, the plates were washed (4×) and biotinylated anti humanTNF monoclonal antibody 2-179-E11 (clone 92030602 (European Collection of Animal Cell Cultures), produced and purified in Novartis Pharma) was added to a final concentration of 1 μg/ml (100 μl/well). […] Color formation was monitored in a Bio-Tec ELx 808 plate reader at 405 nm in the kinetic mode for 30 minutes. […]

- IC50 [1]: 1100 nM
- IC50 (Recombinant human Prak): 1100 nM
- IC50 [4]: 2200 nM
SMILES: O=S(=O)(c1ccc(Nc2nccc(N3CCCc4c(O)cccc43)n2)cc1)N1CCCCC1 [Compound A]
- inhibition at 1 µM [2]: 100%
- IC50 at 24 h [3]: > 30000 nM
